Source: patent publication US20240041042A1, “1-(PYRIDYL)-5-AZINYLPYRAZOLE DERIVATIVES, AND THEIR USE FOR CONTROL OF UNDESIRED PLANT GROWTH” (Bayer Aktiengesellschaft, priority 2020, published 2024)
Where two headings read alike, the source gives them in different places. One block for each molecule: values may come before it.

Legend:
Format in all cases: in vivo
[1] = test system: Polygonum convolvulus (POLCO); test: Post-emergence herbicidal action against POLCO
Outline: (§1)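 Values are percent visual activity (0% like control, 100% plants dead) after about 3 weeks in the greenhouse. Treatment: post-emergence spray at one-leaf stage, 600 l/ha spray volume, 0.5% additive, doses 320 g/ha or lower.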

[2] = test system: Matricaria inodora (MATIN); test: Post-emergence herbicidal action against MATIN; conditions: dosage 320 g/ha
Outline: as §1

Lolium rigidum (LOLRI) [3] = test: Pre-emergence herbicidal action against LOLRI
Outline: (§2)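 Seeds sown in pots and covered with soil; WP or EC formulations sprayed onto the soil surface at 600 l/ha water with 0.5% additive, at 320 g/ha or lower. Greenhouse growth for about 3 weeks, then visual scoring as % effect against untreated controls (100% = plants dead).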

Avena fatua (AVEFA) [4] = test: Pre-emergence herbicidal action against AVEFA; conditions: visual scoring after about 3 weeks vs untreated controls
Outline: as §2

[5] = test system: Verconica persica (VERPE); test: Post-emergence herbicidal action against VERPE
Outline: as §1

[6] = test system: Polygonum convolvulus (POLCO); test: Pre-emergence herbicidal action against POLCO
Outline: as §2

[7] = test system: Pharbitis purpurea (PHBPU); test: Pre-emergence herbicidal action against PHBPU
Outline: as §2

[8] = test system: Abutilon theophrasti (ABUTH); test: Pre-emergence herbicidal action against ABUTH; conditions: 100% = plants have died
Outline: as §2

Viola tricolor (VIOTR) [9] = test: Post-emergence herbicidal action against VIOTR
Outline: as §1

[10] = test system: Abutilon theophrasti (ABUTH); test: Post-emergence herbicidal action against ABUTH; conditions: visual rating about 3 weeks after treatment vs untreated controls (100% = plants have died, 0% = like control plants)
Outline: as §1

Avena fatua (AVEFA) [11] = test: Post-emergence herbicidal action against AVEFA; conditions: 320 g/ha, visual rating about 3 weeks after treatment
Outline: as §1

[12] = test system: Verconica persica (VERPE); test: Pre-emergence herbicidal action against VERPE
Outline: as §2

Setaria viridis (SETVI) [13] = test: Pre-emergence herbicidal action against SETVI
Outline: as §2

[14] = test system: Alopecurus myosuroides (ALOMY); test: Pre-emergence herbicidal action against ALOMY; conditions: scored visually after about 3 weeks, 100% = plants have died
Outline: as §2

[15] = test system: Amaranthus retroflexus (AMARE); test: Pre-emergence herbicidal action against AMARE; conditions: visual scoring after about 3 weeks vs untreated controls
Outline: as §2

Setaria viridis (SETVI) [16] = test: Post-emergence herbicidal action against SETVI
Outline: as §1

[17] = test system: Pharbitis purpurea (PHBPU); test: Post-emergence herbicidal action against PHBPU; conditions: dosage 320 g/ha
Outline: as §1

[18] = test system: Triticum aestivum (TRZAS); conditions: crop plant compatibility, effect vs untreated controls
Outline: (§3)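 Percent effect on the crop was judged by eye against untreated controls, where 0% means like control and 100% means dead plants. Plants had been sprayed post-emergence at the one-leaf stage and then kept under optimum greenhouse conditions for about 3 weeks.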

Oryza sativa (ORYSA) = conditions: crop plant compatibility, effect in comparison to untreated controls
Outline: as §3

[19] = test system: Echinochloa crus-galli (ECHCG); test: Post-emergence herbicidal action against ECHCG
Outline: as §1

[20] = test system: Alopecurus myosuroides (ALOMY); test: Post-emergence herbicidal action against ALOMY; conditions: visual rating about 3 weeks after treatment vs untreated controls (100% = plants have died, 0% = like control plants)
Outline: as §1

[21] = test system: Matricaria inodora (MATIN); test: Pre-emergence herbicidal action against MATIN
Outline: as §2

Lolium rigidum (LOLRI) [22] = test: Post-emergence herbicidal action against LOLRI
Outline: as §1

[23] = test system: Echinochloa crus-galli (ECHCG); test: Pre-emergence herbicidal action against ECHCG
Outline: as §2

Viola tricolor (VIOTR) [24] = test: Pre-emergence herbicidal action against VIOTR
Outline: as §2

[25] = test system: Amaranthus retroflexus (AMARE); test: Post-emergence herbicidal action against AMARE; conditions: 320 g/ha, visual rating about 3 weeks after treatment
Outline: as §1

[26] = 80 g/ha, scored visually after about 3 weeks vs untreated controls, 0% = like control plants
[27] = Dosage column 320 g/ha (title prints 3200 g/ha), scored visually after about 3 weeks

Post-emergence action against TRZAS in % ([18]; 80 g/ha): 20%
Post-emergence action against ORYSA in % (Oryza sativa (ORYSA); 80 g/ha): 10%
Post-emergence action against ORYSA in % (Oryza sativa (ORYSA); 320 g/ha): 20%
SMILES: COC(=O)CNC(=O)[C@@H](C)Oc1nn(-c2ccccn2)c(-c2cncc(F)c2)c1Br [Example I-187]
Post-emergence action against POLCO in % ([1]; dosage 80 g/ha): 80%
Post-emergence action against POLCO in % ([1]; dosage 320 g/ha): 80%
Post-emergence action against MATIN in % [2]: 80%
Pre-emergence action against LOLRI in % (Lolium rigidum (LOLRI) [3]; dosage 80 g/ha): 90%
Pre-emergence action against LOLRI in % (Lolium rigidum (LOLRI) [3]; dosage 320 g/ha): 100%
Pre-emergence action against AVEFA in % (Avena fatua (AVEFA) [4]; 320 g/ha): 90%
Post-emergence action against VERPE in % ([5]; 320 g/ha, VERPE): 90%
Post-emergence action against VERPE in % ([5]; dosage 80 g/ha): 90%
Pre-emergence action against POLCO in % ([6]; dosage 80 g/ha): 90%
Pre-emergence action against POLCO in % ([6]; dosage 320 g/ha): 90%
Pre-emergence action against PHBPU in % ([7]; dosage 80 g/ha): 90%
Pre-emergence action against PHBPU in % ([7]; dosage 320 g/ha): 90%
Pre-emergence action against ABUTH [8, 26]: 80%
Pre-emergence action against ABUTH [8, 27]: 90%
Post-emergence action against VIOTR in % (Viola tricolor (VIOTR) [9]; 80 g/ha): 80%
Post-emergence action against VIOTR in % (Viola tricolor (VIOTR) [9]; 320 g/ha): 90%
Post-emergence action against ABUTH in % ([10]; 320 g/ha): 80%
Post-emergence action against AVEFA in % (Avena fatua (AVEFA) [11]): 80%
Pre-emergence action against VERPE in % ([12]; dosage 80 g/ha): 90%
Pre-emergence action against VERPE in % ([12]; dosage 320 g/ha): 90%
Pre-emergence action against SETVI in % (Setaria viridis (SETVI) [13]; dosage 80 g/ha): 100%
Pre-emergence action against SETVI in % (Setaria viridis (SETVI) [13]; dosage 320 g/ha): 100%
Pre-emergence action against ALOMY ([14]; 80 g/ha): 90%
Pre-emergence action against ALOMY ([14]; 320 g/ha): 100%
Pre-emergence action against AMARE in % ([15]; 80 g/ha): 80%
Pre-emergence action against AMARE in % ([15]; 320 g/ha): 100%
Post-emergence action against SETVI in % (Setaria viridis (SETVI) [16]; dosage 320 g/ha): 80%
Post-emergence action against PHBPU in % [17]: 80%
Post-emergence action against ECHCG in % ([19]; dosage 80 g/ha): 80%
Post-emergence action against ECHCG in % ([19]; dosage 320 g/ha): 80%
Post-emergence action against ALOMY in % ([20]; 320 g/ha): 90%
Pre-emergence action against MATIN in % ([21]; dosage 80 g/ha): 90%
Pre-emergence action against MATIN in % ([21]; dosage 320 g/ha): 90%
Post-emergence action against LOLRI in % (Lolium rigidum (LOLRI) [22]; dosage 80 g/ha): 90%
Post-emergence action against LOLRI in % (Lolium rigidum (LOLRI) [22]; dosage 320 g/ha): 90%
Pre-emergence action against ECHCG in % ([23]; dosage 80 g/ha): 90%
Pre-emergence action against ECHCG in % ([23]; dosage 320 g/ha): 100%
Pre-emergence action against VIOTR in % (Viola tricolor (VIOTR) [24]; 320 g/ha, Viola tricolor): 100%
Pre-emergence action against VIOTR in % (Viola tricolor (VIOTR) [24]; dosage 80 g/ha): 100%

Post-emergence action against TRZAS in % ([18]; 80 g/ha): 0%
Post-emergence action against TRZAS in % ([18]; 320 g/ha): 0%
Post-emergence action against ORYSA in % (Oryza sativa (ORYSA); 80 g/ha): 0%
SMILES: CCOC(=O)COc1nn(-c2ccnc(Cl)c2)c(-c2ccc(F)nc2)c1Br [III-24]
Post-emergence action against POLCO in % ([1]; dosage 320 g/ha): 90%
Pre-emergence action against LOLRI in % (Lolium rigidum (LOLRI) [3]; dosage 80 g/ha): 100%
Pre-emergence action against LOLRI in % (Lolium rigidum (LOLRI) [3]; dosage 320 g/ha): 100%
Pre-emergence action against AVEFA in % (Avena fatua (AVEFA) [4]; 80 g/ha): 100%
Pre-emergence action against AVEFA in % (Avena fatua (AVEFA) [4]; 320 g/ha): 100%
Post-emergence action against VERPE in % ([5]; 320 g/ha, VERPE): 80%
Pre-emergence action against POLCO in % ([6]; dosage 320 g/ha): 100%
Pre-emergence action against PHBPU in % ([7]; dosage 320 g/ha): 100%
Pre-emergence action against ABUTH [8, 26]: 90%
Pre-emergence action against ABUTH [8, 27]: 100%
Post-emergence action against VIOTR in % (Viola tricolor (VIOTR) [9]; 80 g/ha): 80%
Post-emergence action against VIOTR in % (Viola tricolor (VIOTR) [9]; 320 g/ha): 90%
Post-emergence action against ABUTH in % ([10]; 80 g/ha): 90%
Post-emergence action against ABUTH in % ([10]; 320 g/ha): 90%
Post-emergence action against AVEFA in % (Avena fatua (AVEFA) [11]): 80%
Pre-emergence action against VERPE in % ([12]; dosage 320 g/ha): 100%
Pre-emergence action against SETVI in % (Setaria viridis (SETVI) [13]; dosage 80 g/ha): 100%
Pre-emergence action against SETVI in % (Setaria viridis (SETVI) [13]; dosage 320 g/ha): 100%
Pre-emergence action against ALOMY ([14]; 80 g/ha): 100%
Pre-emergence action against ALOMY ([14]; 320 g/ha): 100%
Pre-emergence action against AMARE in % ([15]; 80 g/ha): 100%
Pre-emergence action against AMARE in % ([15]; 320 g/ha): 100%
Post-emergence action against SETVI in % (Setaria viridis (SETVI) [16]; dosage 80 g/ha): 100%
Post-emergence action against SETVI in % (Setaria viridis (SETVI) [16]; dosage 320 g/ha): 100%
Post-emergence action against ECHCG in % ([19]; dosage 80 g/ha): 80%
Post-emergence action against ECHCG in % ([19]; dosage 320 g/ha): 100%
Post-emergence action against ALOMY in % ([20]; 80 g/ha): 100%
Post-emergence action against ALOMY in % ([20]; 320 g/ha): 100%
Pre-emergence action against MATIN in % ([21]; dosage 320 g/ha): 100%
Post-emergence action against LOLRI in % (Lolium rigidum (LOLRI) [22]; dosage 80 g/ha): 100%
Post-emergence action against LOLRI in % (Lolium rigidum (LOLRI) [22]; dosage 320 g/ha): 100%
Pre-emergence action against ECHCG in % ([23]; dosage 80 g/ha): 90%
Pre-emergence action against ECHCG in % ([23]; dosage 320 g/ha): 100%
Pre-emergence action against VIOTR in % (Viola tricolor (VIOTR) [24]; 320 g/ha, Viola tricolor): 100%
Pre-emergence action against VIOTR in % (Viola tricolor (VIOTR) [24]; dosage 80 g/ha): 100%
Post-emergence action against AMARE in % [25]: 100%
